In patent US11214563B2 (JANSSEN PHARMACEUTICA NV, priority 2019, dated 2022):

Columns and labels:
[1] = target: human GluN1/GluN2B NMDA receptors (Homo sapiens (Human), UniProt Q05586+Q13224); experiment: Cell-based calcium flux (FLIPR) assay on cloned human NR1/NR2B ion channels expressed in mammalian cells; settings: standard assay, glutamate ~EC40, 10 μM glycine
Description: (§1) Effects of Test Articles on Cloned Human NR1/NR2B Ion Channels Expressed in Mammalian Cells
(§2) NMDA receptors are ion channels that are highly permeable to Ca^2+ ions, rendering it possible to monitor NMDA receptor function using cell-based calcium flux assay. In this assay, co-agonists glutamate and glycine are added to cells heterologously expressing human GluN1/GluN2B NMDA receptors to initiate cellular Ca^2+ influx. The time course of the changes in intracellular calcium is measured using a fluorescent dye and a FLIPR (Fluorometric Imaging Plate Reader) device.
(§3) Twenty four hours before measurements, the expression of the NMDA receptors in the stable cell line is induced with Tet-On inducible system in the presence of a non-selective NMDA receptor blocker. On the day of the experiment, cell culture media is carefully washed and the cells are loaded with Calcium 5 Dye Kit (Molecular Devices) in dye loading buffer containing 137 mM NaCl, 4 mM KCl, 2 mM CaCl2), 0.5 mM MgCl2(standard assay) or 1.5 mM MgCl2 (HTS assay), 10 mM HEPES and 5 mM D-glucose; pH 7.4. After 1 h incubation at the room temperature, the dye is washed away with the assay buffer (137 mM NaCl (standard assay) or 150 mM (HTS assay), 4 mM KCl (standard assay) or 3 mM (HTS assay), 2 mM CaCl2), 0.01 mM EDTA, 10 mM HEPES and 5 mM D-glucose; pH 7.4) In the FLIPR TETRA reader, various concentrations of the test compounds are added to the cells for 5 min while fluorescence is monitored to detect potential agonist activity. Next, co-agonists, glutamate and glycine are added for another 5 minutes. The concentration of glutamate corresponding to ˜EC40 (standard assay) or EC40 (HTS assay) is used to maximize the assay's signal window and ability to detect NMDA receptor antagonists and negative allosteric modulators. A saturating concentration (10 μM) of glycine is also present in the assay. A non-selective NMDA receptor antagonist, (+)MK-801 is used as a positive control for antagonist activity. The fluorescent signal in the presence of test compounds is quantified and normalized to the signal defined by the appropriate control wells.

[2] = Liver microsomal stability (extraction ratio); format: in vitro ADME; settings: test compound 1 μM; 0.5 mg/mL liver microsomes; species not stated in Table 4 (method: mouse, rat, and human)
Description: Protocol for Liver Microsomal Stability (Extraction Ratio)
Liver Microsomal Stability. Microsomal stability studies (Chrovian et al, “H-Pyrrolo[3,2-b]pyridine GluN2B-Selective Negative Allosteric Modulators”. ACS Med Chem Lett. 2019 Jan. 10; 10(3):261-266) were conducted on a Biomek@ FX Robotic Liquid Handling Workstation (Beckman Coulter, Brea, Calif.), which consists of a 96-channel pipette head, a 12-position workstation deck, and a plate incubator. Test compounds (1 μM) were spiked in a reaction mix consisting of 100 mM potassium phosphate buffer (pH 7.4), 3 mM MgCl2, and 0.5 mg/mL liver microsomes from mouse, rat, and human (BD Gentest). The reaction was brought to 37° C. and initiated by adding NADPH to a final concentration of 1 mM. After mixing on the plate deck, […] aliquots were excised from the reaction plate at 0, 5, 10, 20, 40, and 60 min and quenched with four volumes of acetonitrile spiked with […] of the internal standard phenytoin. Quenched plates were centrifuged at 5700 rpm for 10 min at 4° C., and supernatant was diluted 1:3 in water before LC/MS/MS analysis. The compound half-lives were derived from plots of the ln of percent remaining compound over time to determine the intrinsic clearance. The predicted hepatic clearance was derived from the intrinsic clearance value using equations from the well-stirred model (Current Drug Metabolism, 2008, 9, 940-951), where no correction was made plasma protein binding and the blood to plasma concentration ratio was assumed to be one. The extraction ratio (ER) was calculated by dividing the predicted hepatic clearance by species blood flow (Q), where Q is 90, 55, and 21.7 mL/min/kg for mouse, rat and human, respectively

[3] = target: human GluN1/GluN2B NMDA receptors (Homo sapiens (Human), UniProt Q13224); experiment: Cell-based calcium flux (FLIPR) assay on cloned human NR1/NR2B ion channels expressed in mammalian cells; settings: standard assay, glutamate ~EC40, 10 μM glycine
Description: as §1, §2, §3

human GluN1/GluN2B NMDA receptors (Homo sapiens (Human), UniProt Q05586+Q13224), sequence (Q13224 27-1484, other chains not shown): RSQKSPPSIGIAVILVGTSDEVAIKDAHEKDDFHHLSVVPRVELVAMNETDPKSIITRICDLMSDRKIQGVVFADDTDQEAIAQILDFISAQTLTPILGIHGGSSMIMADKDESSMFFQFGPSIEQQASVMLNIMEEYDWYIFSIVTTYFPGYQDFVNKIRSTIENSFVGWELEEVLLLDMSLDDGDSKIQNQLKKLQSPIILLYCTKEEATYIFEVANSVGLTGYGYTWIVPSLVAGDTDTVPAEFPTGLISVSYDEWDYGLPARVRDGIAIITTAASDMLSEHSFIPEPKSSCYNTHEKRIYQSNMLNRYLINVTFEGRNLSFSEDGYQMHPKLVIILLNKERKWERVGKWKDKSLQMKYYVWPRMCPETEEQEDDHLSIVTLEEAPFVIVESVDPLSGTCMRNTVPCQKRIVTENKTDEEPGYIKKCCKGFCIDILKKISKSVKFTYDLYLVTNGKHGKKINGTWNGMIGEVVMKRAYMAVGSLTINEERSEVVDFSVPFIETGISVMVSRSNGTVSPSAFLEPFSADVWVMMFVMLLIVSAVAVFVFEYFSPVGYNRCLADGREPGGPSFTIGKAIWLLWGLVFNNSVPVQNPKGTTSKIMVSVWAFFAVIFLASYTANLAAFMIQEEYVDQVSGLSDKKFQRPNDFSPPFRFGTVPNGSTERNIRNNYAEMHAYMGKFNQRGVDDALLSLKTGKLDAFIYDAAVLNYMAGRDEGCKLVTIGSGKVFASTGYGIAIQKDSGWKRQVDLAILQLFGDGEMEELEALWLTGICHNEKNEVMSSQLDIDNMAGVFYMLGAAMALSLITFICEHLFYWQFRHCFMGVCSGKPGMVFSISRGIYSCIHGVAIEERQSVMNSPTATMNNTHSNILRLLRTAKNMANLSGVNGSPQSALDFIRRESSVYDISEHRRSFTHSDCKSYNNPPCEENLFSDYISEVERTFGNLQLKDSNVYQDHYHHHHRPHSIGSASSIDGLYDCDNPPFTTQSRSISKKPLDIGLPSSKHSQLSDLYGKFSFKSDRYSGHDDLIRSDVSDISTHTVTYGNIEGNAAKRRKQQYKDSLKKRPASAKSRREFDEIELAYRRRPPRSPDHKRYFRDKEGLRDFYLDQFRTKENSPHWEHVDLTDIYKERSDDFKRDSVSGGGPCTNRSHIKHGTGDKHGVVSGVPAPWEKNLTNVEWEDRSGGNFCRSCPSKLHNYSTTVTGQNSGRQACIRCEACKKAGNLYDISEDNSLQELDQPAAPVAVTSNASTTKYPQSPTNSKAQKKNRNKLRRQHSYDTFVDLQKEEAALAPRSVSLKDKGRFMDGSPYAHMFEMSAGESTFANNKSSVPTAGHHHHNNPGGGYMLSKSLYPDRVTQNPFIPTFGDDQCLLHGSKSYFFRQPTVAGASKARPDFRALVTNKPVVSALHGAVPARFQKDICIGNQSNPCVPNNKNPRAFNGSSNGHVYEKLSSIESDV
human GluN1/GluN2B NMDA receptors (Homo sapiens (Human), UniProt Q13224), sequence (Q13224 27-1484, other chains not shown): as above

SMILES | IC50 [1] | Extraction Ratio @ 1 μM [2] | IC50 [3]
O=C(Cn1ncc2ncc(-c3ccc(F)c(C(F)F)c3)nc21)N1CCC1 [Example 24, 1-(Azetidin-1-yl)-2-[6-[3-(difluoromethyl)-4-fluoro-phenyl]pyrazolo[3,4-b]pyrazin-1-yl]ethanone] | 37 nM | <0.298 | –
CC(F)(F)c1cc(-c2cnc3cnn(CC(=O)N4CCC4)c3n2)ccc1F [Example 27, 1-(Azetidin-1-yl)-2-[6-[3-(1,1-difluoroethyl)-4-fluoro-phenyl]pyrazolo[3,4-b]pyrazin-1-yl]ethanone] | 126 nM | – | –
Cc1c(F)cc(-c2cnc3cnn(CC(=O)N(C)C)c3n2)cc1F [Example 20, 2-[6-(3,5-Difluoro-4-methyl-phenyl)pyrazolo[3,4-b]pyrazin-1-yl]-N,N-dimethyl-acetamide] | 907 nM | – | –
N#Cc1cncc(Cn2ncc3ncc(-c4ccc(F)c(C(F)F)c4)nc32)c1 [Example 45, 5-[[6-[3-(Difluoromethyl)-4-fluoro-phenyl]pyrazolo[3,4-b]pyrazin-1-yl]methyl]pyridine-3-carbonitrile] | 285 nM | – | –
CN(C)C(=O)Cn1ncc2ncc(-c3ccc(F)c(C(F)F)c3)nc21 [Example 10, 2-[6-[3-(Difluoromethyl)-4-fluoro-phenyl]pyrazolo[3,4-b]pyrazin-1-yl]-N,N-dimethyl-acetamide] | 42 nM | 0.41 | –
Cc1nnc(Cn2ncc3ncc(-c4ccc(F)c(C(F)F)c4)nc32)o1 [Example 40, 2-[[6-[3-(Difluoromethyl)-4-fluoro-phenyl]pyrazolo[3,4-b]pyrazin-1-yl]methyl]-5-methyl-1,3,4-oxadiazole] | 158 nM | – | –
O=C(Cn1ncc2ncc(-c3ccc(Cl)c(OC(F)F)c3)nc21)C1CC1 [Example 2, 2-[6-[4-Chloro-3-(difluoromethoxy)phenyl]pyrazolo[3,4-b]pyrazin-1-yl]-1-cyclopropyl-ethanone] | 81 nM | – | –
Cc1ccc(-c2cnc3cnn(CC(=O)N(C)C)c3n2)cc1F [Example 6, 2-[6-(3-Fluoro-4-methyl-phenyl)pyrazolo[3,4-b]pyrazin-1-yl]-N,N-dimethyl-acetamide] | 916 nM | – | –
CN(C)C(=O)Cn1ncc2ncc(-c3cc(F)c(F)c(F)c3)nc21 [Example 22, N,N-Dimethyl-2-[6-(3,4,5-trifluorophenyl)pyrazolo[3,4-b]pyrazin-1-yl]acetamide] | 489 nM | – | –
CN(C)C(=O)Cn1ncc2ncc(-c3ccc(Cl)c(C(F)F)c3)nc21 [Example 12, 2-[6-[4-Chloro-3-(difluoromethyl)phenyl]pyrazolo[3,4-b]pyrazin-1-yl]-N,N-dimethyl-acetamide] | 36 nM | 0.54 | –
CN(C)C(=O)Cn1ncc2ncc(-c3ccc(Cl)c(OC(F)F)c3)nc21 [Example 18, 2-[6-[4-Chloro-3-(difluoromethoxy)phenyl]pyrazolo[3,4-b]pyrazin-1-yl]-N,N-dimethyl-acetamide] | 64 nM | – | –
O=C(Cn1ncc2ncc(-c3ccc(F)c(OC(F)F)c3)nc21)N1CCC1 [Example 28, 1-(Azetidin-1-yl)-2-[6-[3-(difluoromethoxy)-4-fluoro-phenyl]pyrazolo[3,4-b]pyrazin-1-yl]ethanone] | – | 0.45 | 59 nM
CC1CN(C(=O)Cn2ncc3ncc(-c4ccc(F)c(C(F)F)c4)nc32)C1 [Example 30, 2-[6-[3-(Difluoromethyl)-4-fluoro-phenyl]pyrazolo[3,4-b]pyrazin-1-yl]-1-(3-methylazetidin-1-yl)ethanone] | 122 nM | – | –
CCC(=O)Cn1ncc2ncc(-c3ccc(F)c(C(F)F)c3)nc21 [Example 1, 1-[6-[3-(Difluoromethyl)-4-fluoro-phenyl]pyrazolo[3,4-b]pyrazin-1-yl]butan-2-one] | 22 nM | – | –
CN(C)C(=O)Cn1ncc2ncc(-c3ccc(C(F)(F)F)s3)nc21 [Example 3, N,N-Dimethyl-2-[6-[5-(trifluoromethyl)-2-thienyl]pyrazolo[3,4-b]pyrazin-1-yl]acetamide] | 581 nM | – | –
CN(C)C(=O)Cn1ncc2ncc(-c3ccc(F)c(OC(F)F)c3)nc21 [Example 16, 2-[6-[3-(Difluoromethoxy)-4-fluoro-phenyl]pyrazolo[3,4-b]pyrazin-1-yl]-N,N-dimethyl-acetamide] | 72 nM | – | –
CN(C)C(=O)Cn1nc(F)c2ncc(-c3ccc(F)c(C(F)F)c3)nc21 [Example 11, 2-[6-[3-(Difluoromethyl)-4-fluoro-phenyl]-3-fluoro-pyrazolo[3,4-b]pyrazin-1-yl]-N,N-dimethyl-acetamide] | 59 nM | – | –
CN(C)C(=O)Cn1ncc2ncc(-c3ccc(Cl)c(F)c3)nc21 [Example 5, 2-[6-(4-Chloro-3-fluoro-phenyl)pyrazolo[3,4-b]pyrazin-1-yl]-N,N-dimethyl-acetamide] | 827 nM | – | –
O=C(Cn1ncc2ncc(-c3ccc(F)c(OC(F)F)c3)nc21)N1CC(F)C1 [Example 37, 2-[6-[3-(Difluoromethoxy)-4-fluoro-phenyl]pyrazolo[3,4-b]pyrazin-1-yl]-1-(3-fluoroazetidin-1-yl)ethanone] | – | 0.46 | 92 nM
Cc1cccc(-c2cnc3cnn(CC(=O)N(C)C)c3n2)c1 [Example 4, N,N-Dimethyl-2-[6-(m-tolyl)pyrazolo[3,4-b]pyrazin-1-yl]acetamide] | 410 nM | – | –
CN(C)C(=O)Cn1ncc2ncc(-c3ccc(C(C)(F)F)cc3)nc21 [Example 53, 2-(6-(4-(1,1-Difluoroethyl)phenyl)-1H-pyrazolo[3,4-b]pyrazin-1-yl)-N,N-dimethylacetamide] | > 3000 nM | – | –
O=C1NCC(Cn2ncc3ncc(-c4ccc(F)c(OC(F)F)c4)nc32)O1 (centres unmarked) [Example 51, 5-((6-(3-(Difluoromethoxy)-4-fluorophenyl)-1H-pyrazolo[3,4-b]pyrazin-1-yl)methyl)oxazolidin-2-one] | > 3000 nM | – | –
O=C(Cn1ncc2ncc(-c3ccc(F)c(C(F)F)c3)nc21)N1CC(F)C1 [Example 32, 2-[6-[3-(Difluoromethyl)-4-fluoro-phenyl]pyrazolo[3,4-b]pyrazin-1-yl]-1-(3-fluoroazetidin-1-yl)ethanone] | 37 nM | <0.298 | –
